Read-outs that look alike come from different tables or passages of the source.
Assays:
healthy subjects = test: HBEC Part A multiple ascending dose study: TEAEs, vital signs, tolerability; assay type: in vivo, human
Procedure: FIG. 3: Design of the study HBEC, a multiple ascending dose study of LY3154207, a randomized, double-blind, placebo-controlled, multiple ascending dose, parallel-group study, of healthy subjects (Part A) and participants with PD (Part B) who received once-daily doses of LY3154207 (15, 30, 75, or 150 mg in Part A and up to 75 mg in Part B) or placebo for 14 days. aEach ascending dose cohort commenced only after review of the safety data to at least Day 7 from the previous cohort. bParticipants with PD in Cohort 6 received titrated doses to determine the effect of this dosing schedule (i.e., Days 1-3:15 mg: Days 4-6:30 mg; and Days 7-14:75 mg) on cardiovascular effects. Note: All cohorts were dosed for 14 days. CRU=clinical research unit: LY=LY3154207; PBO=placebo: PD=Parkinson's disease: R=randomized.
(§1) In this randomized, double-blind, placebo-controlled, multiple ascending dose, parallel-group study, HBEC, healthy subjects (Part A) and participants with PD (Part B) received once-daily doses of LY3154207 (15, 30, 75, or 150 mg in Part A and up to 75 mg in Part B) or placebo for 14 days, as illustrated in FIG. 3.
(§2) Study outcomes included 24-hour ambulatory blood pressure monitoring (ABPM), treatment-emergent adverse events (TEAEs), and PK assessments in both healthy subjects and participants with PD, as well as Movement Disorder Society-United Parkinson's Disease Rating Scale (MDS-UPDRS) assessments to evaluate the impact of LY3154207 on motor function in participants with PD. The objective was to explore the safety, tolerability, and pharmacokinetics (PK) of multiple oral daily dosing of LY3154207 in healthy subjects (Part A) and in participants with PD (Part B).

[1] = HBEC Part A pharmacokinetics, healthy subjects; assay type: in vivo, human; settings: for CLss/F / RAAUC(0-24) (accumulation ratio Day 14:Day 1) / RACmax (accumulation ratio Day 14:Day 1) / Cmax / AUC(0-t) / CL renal: geometric mean; for Cmax / AUC(0-t) / Tmax / CL renal: human, in vivo, oral; for AUC(0-t): read-out: AUC(0-24); for Tmax: read-out: tmax, median; for CL renal: read-out: CLr (renal clearance) (converted)
Procedure: as §1, §2

[2] = healthy subjects, LY 15 mg once daily for 14 days (N = 9)
[3] = healthy subjects, LY 30 mg once daily for 14 days (N = 9)
[4] = healthy subjects, LY 75 mg once daily for 14 days (N = 9)
[5] = healthy subjects, LY 150 mg once daily for 14 days (N = 9)
[6] = healthy subjects, primarily at the 150 mg dose

Structure (SMILES): C[C@H]1c2cccc(CCC(C)(C)O)c2C[C@H](CO)N1C(=O)Cc1c(Cl)cccc1Cl [LY3154207]
- incidence of TEAEs following multiple dosing (healthy subjects; healthy subjects): dose-dependent increase
- severe or serious TEAEs (healthy subjects; healthy subjects): no severe or serious TEAEs
- Number of TEAEs (healthy subjects; [2]): 6
- Number of TEAEs, Mild (healthy subjects; [2]): 6
- Number of TEAEs, Moderate (healthy subjects; [2]): 0
- Subjects with ≥1 TEAE, (%) (healthy subjects; [2]): (44.4) %
- Number of TEAEs (healthy subjects; [3]): 5
- Number of TEAEs, Mild (healthy subjects; [3]): 5
- Number of TEAEs, Moderate (healthy subjects; [3]): 0
- Subjects with ≥1 TEAE, (%) (healthy subjects; [3]): (55.6) %
- Number of TEAEs (healthy subjects; [4]): 6
- Number of TEAEs, Mild (healthy subjects; [4]): 6
- Number of TEAEs, Moderate (healthy subjects; [4]): 0
- Subjects with ≥1 TEAE, (%) (healthy subjects; [4]): (33.3) %
- Number of TEAEs (healthy subjects; [5]): 35
- Number of TEAEs, Mild (healthy subjects; [5]): 35
- Number of TEAEs, Moderate (healthy subjects; [5]): 0
- Subjects with ≥1 TEAE, (%) (healthy subjects; [5]): (88.9) %
- dizziness, treatment-related AE (healthy subjects; [6]): 3 n
- insomnia, treatment-related AE (healthy subjects; [6]): 4 n
- nausea, treatment-related AE (healthy subjects; [6]): 2 n
- nervousness, treatment-related AE (healthy subjects; [6]): 3 n
- palpitations, treatment-related AE (healthy subjects; [6]): 3 n
- course of the initial increase in SBP, DBP, and pulse rate (healthy subjects; healthy subjects, repeated dosing): showed accommodation with repeated dosing
- tolerability of multiple once-daily doses (healthy subjects; up to 150 mg in healthy subjects): well tolerated
- accumulation upon repeated dosing [1]: minimal accumulation
- CLss/F ([1]; Day 14, LY 15 mg (N = 9)): 30.5 L/h
- CLss/F ([1]; Day 14, LY 30 mg (N = 9)): 24.2 L/h
- CLss/F ([1]; Day 14, LY 75 mg (N = 9)): 33.8 L/h
- CLss/F ([1]; Day 14, LY 150 mg (N = 9)): 34.5 L/h
- RAAUC(0-24) (accumulation ratio Day 14:Day 1) ([1]; LY 15 mg (N = 9)): 1.34
- RACmax (accumulation ratio Day 14:Day 1) ([1]; LY 15 mg (N = 9)): 1.18
- RAAUC(0-24) (accumulation ratio Day 14:Day 1) ([1]; LY 30 mg (N = 9)): 1.03
- RACmax (accumulation ratio Day 14:Day 1) ([1]; LY 30 mg (N = 9)): 1.12
- RAAUC(0-24) (accumulation ratio Day 14:Day 1) ([1]; LY 75 mg (N = 9)): 0.99
- RACmax (accumulation ratio Day 14:Day 1) ([1]; LY 75 mg (N = 9)): 1.13
- RAAUC(0-24) (accumulation ratio Day 14:Day 1) ([1]; LY 150 mg (N = 9)): 0.93
- RACmax (accumulation ratio Day 14:Day 1) ([1]; LY 150 mg (N = 9)): 0.92
- Cmax ([1]; Day 14, LY 15 mg (N = 9)): 66.2 ng/mL
- AUC(0-t) ([1]; Day 14, LY 15 mg (N = 9)): 492 ng·h/mL
- Tmax ([1]; Day 14, LY 15 mg (N = 9)): 2 h
- Cmax ([1]; Day 14, LY 30 mg (N = 9)): 149 ng/mL
- AUC(0-t) ([1]; Day 14, LY 30 mg (N = 9)): 1240 ng·h/mL
- CL renal ([1]; Day 14, LY 30 mg (N = 9)): 0.06 mL/min
- Tmax ([1]; Day 14, LY 30 mg (N = 9)): 2 h
- Cmax ([1]; Day 14, LY 75 mg (N = 9)): 307 ng/mL
- AUC(0-t) ([1]; Day 14, LY 75 mg (N = 9)): 2220 ng·h/mL
- CL renal ([1]; Day 14, LY 75 mg (N = 9)): 0.04 mL/min
- Tmax ([1]; Day 14, LY 75 mg (N = 9)): 2 h
- Cmax ([1]; Day 14, LY 150 mg (N = 9)): 500 ng/mL
- AUC(0-t) ([1]; Day 14, LY 150 mg (N = 9)): 4350 ng·h/mL
- CL renal ([1]; Day 14, LY 150 mg (N = 9)): 0.0567 mL/min
- Tmax ([1]; Day 14, LY 150 mg (N = 9)): 3 h

— patent US12642794B2, “Dose regimens for use of LY3154207 in the treatment of dopaminergic CNS disorders” (Eli Lilly and Company, priority 2018, dated 2026)
